Reference: patent US11053204B2, “Pyrimidinyloxy benzene derivatives as herbicides” (FMC Corporation, priority 2015, dated 2021)

Columns and labels:
Assay type in all cases: in vivo
[1] = system: Italian ryegrass (Lolium multiflorum); assay: Test A preemergence, visual injury rating; conditions: 0 to 100 scale (0 no effect, 100 complete control)
In short: (§1)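 Greenhouse pot test, loam/sand soil. Formulation: non-phytotoxic solvent mix plus surfactant. Pre: directed spray onto soil after sowing. Post: plants at 1–2 leaf, 2–10 cm. Rated visually vs untreated controls at ~10 d, 0 (no effect) to 100 (complete control).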

[2] = system: barnyardgrass (Echinochloa crus-galli); assay: Test A preemergence, visual injury rating; conditions: 0 to 100 scale (0 no effect, 100 complete control)
In short: as §1

[3] = system: giant foxtail (Setaria faberii); assay: Test A preemergence, visual injury rating; conditions: 0 to 100 scale (0 no effect, 100 complete control)
In short: as §1

kochia (Kochia scoparia) [4] = assay: Test A preemergence, visual injury rating; conditions: 0 to 100 scale (0 no effect, 100 complete control)
In short: as §1

[5] = system: pigweed (Amaranthus retroflexus); assay: Test A preemergence, visual injury rating; conditions: 0 to 100 scale (0 no effect, 100 complete control)
In short: as §1

[6] = system: ragweed (common ragweed, Ambrosia elatior); assay: Test A preemergence, visual injury rating; conditions: 0 to 100 scale (0 no effect, 100 complete control)
In short: as §1

[7] = system: barnyardgrass (Echinochloa crus-galli); assay: Test C postemergence, plant response rating; conditions: for Plant response rating, Barnyardgrass: scale 0 to 100; for Barnyardgrass plant response rating: scale 0 to 100 (0 no effect, 100 complete control)
In short: (§2)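 Greenhouse plants rated visually against untreated controls 13–15 d after treatment, scale 0 = no effect to 100 = complete control. Postemergence sprays went onto potted plants 2–18 cm tall (1–4 leaves); preemergence sprays onto soil freshly sown in loam–sand or silt loam, chemicals formulated in non-phytotoxic solvent with surfactant.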

corn (Zea mays) = assay: Test C postemergence, plant response rating; conditions: for Plant response rating, Corn: scale 0 to 100; for Corn plant response rating: scale 0 to 100 (0 no effect, 100 complete control)
In short: as §2

[8] = system: crabgrass, large (large crabgrass, Digitaria sanguinalis); assay: Test C postemergence, plant response rating; conditions: for Plant response rating, Crabgrass, Large: scale 0 to 100; for Crabgrass, Large plant response rating: scale 0 to 100 (0 no effect, 100 complete control)
In short: as §2

kochia (Kochia scoparia) [9] = assay: Test C postemergence, plant response rating; conditions: for Plant response rating, Kochia: scale 0 to 100; for Kochia plant response rating: scale 0 to 100 (0 no effect, 100 complete control)
In short: as §2

[10] = system: lambsquarters (Chenopodium album); assay: Test C postemergence, plant response rating; conditions: for Plant response rating, Lambsquarters: scale 0 to 100; for Lambsquarters plant response rating: scale 0 to 100 (0 no effect, 100 complete control)
In short: as §2

[11] = system: morningglory (Ipomoea coccinea); assay: Test C postemergence, plant response rating; conditions: for Plant response rating, Morningglory: scale 0 to 100; for Morningglory plant response rating: scale 0 to 100 (0 no effect, 100 complete control)
In short: as §2

[12] = system: nutsedge, yellow (yellow nutsedge, Cyperus esculentus); assay: Test C postemergence, plant response rating; conditions: for Plant response rating, Nutsedge, Yellow: scale 0 to 100; for Nutsedge, Yellow plant response rating: scale 0 to 100 (0 no effect, 100 complete control)
In short: as §2

[13] = system: oat, wild (wild oat Avena fatua); assay: Test C postemergence, plant response rating; conditions: for Plant response rating, Oat, Wild: scale 0 to 100; for Oat, Wild plant response rating: scale 0 to 100 (0 no effect, 100 complete control)
In short: as §2

[14] = system: ragweed (common ragweed, Ambrosia elatior); assay: Test C postemergence, plant response rating; conditions: for Plant response rating, Ragweed: scale 0 to 100; for Ragweed plant response rating: scale 0 to 100 (0 no effect, 100 complete control)
In short: as §2

[15] = system: velvetleaf (Abutilon theophrasti); assay: Test C postemergence, plant response rating; conditions: for Plant response rating, Velvetleaf: scale 0 to 100; for Velvetleaf plant response rating: scale 0 to 100 (0 no effect, 100 complete control)
In short: as §2

N#Cc1cccc(Oc2ncc(Cl)cn2)c1CCCC(F)(F)F [Compound 72]
85: Plant response rating, Lambsquarters ([10]; 31 g ai/ha) | Lambsquarters plant response rating ([10]; 125 g ai/ha)
35: Plant response rating, Ragweed ([14]; 16 g ai/ha)
70: Morningglory plant response rating ([11]; 125 g ai/ha) | Velvetleaf plant response rating ([15]; 125 g ai/ha)
75: Plant response rating, Lambsquarters ([10]; 16 g ai/ha) | Lambsquarters plant response rating ([10]; 62 g ai/ha) | Plant response rating, Morningglory ([11]; 16 g ai/ha) | Ragweed plant response rating ([14]; 125 g ai/ha)
40: Morningglory plant response rating ([11]; 62 g ai/ha) | Ragweed plant response rating ([14]; 62 g ai/ha) | Plant response rating, Velvetleaf ([15]; 16 g ai/ha) | Velvetleaf plant response rating ([15]; 62 g ai/ha)
5: Plant response rating, Barnyardgrass ([7]; 16 g ai/ha) | Plant response rating, Barnyardgrass ([7]; 31 g ai/ha) | Plant response rating, Nutsedge, Yellow ([12]; 16 g ai/ha) | Plant response rating, Oat, Wild ([13]; 16 g ai/ha) | Plant response rating, Oat, Wild ([13]; 31 g ai/ha) | Oat, Wild plant response rating ([13]; 62 g ai/ha)
90: Barnyardgrass plant response rating ([2]; 125 g ai/ha) | Foxtail, Giant plant response rating ([3]; 125 g ai/ha) | Kochia plant response rating (kochia (Kochia scoparia) [4]; 125 g ai/ha)
20: Corn plant response rating (corn (Zea mays); 125 g ai/ha)
0: Ragweed plant response rating ([6]; 125 g ai/ha)
50: Crabgrass, Large plant response rating ([8]; 125 g ai/ha) | Plant response rating, Ragweed ([14]; 31 g ai/ha) | Plant response rating, Velvetleaf ([15]; 31 g ai/ha)
65: Plant response rating, Morningglory ([11]; 31 g ai/ha)
10: Ryegrass, Italian plant response rating ([1]; 125 g ai/ha) | Ragweed plant response rating ([6]; 500 g ai/ha) | Barnyardgrass plant response rating ([7]; 62 g ai/ha) | Barnyardgrass plant response rating ([7]; 125 g ai/ha) | Plant response rating, Corn (corn (Zea mays); 16 g ai/ha) | Corn plant response rating (corn (Zea mays); 62 g ai/ha) | Plant response rating, Crabgrass, Large ([8]; 16 g ai/ha) | Plant response rating, Crabgrass, Large ([8]; 31 g ai/ha) | Crabgrass, Large plant response rating ([8]; 62 g ai/ha) | Plant response rating, Nutsedge, Yellow ([12]; 31 g ai/ha) | Nutsedge, Yellow plant response rating ([12]; 62 g ai/ha) | Oat, Wild plant response rating ([13]; 125 g ai/ha)
15: Plant response rating, Corn (corn (Zea mays); 31 g ai/ha) | Nutsedge, Yellow plant response rating ([12]; 125 g ai/ha)
100: Barnyardgrass plant response rating ([2]; 500 g ai/ha) | Foxtail, Giant plant response rating ([3]; 500 g ai/ha) | Kochia plant response rating (kochia (Kochia scoparia) [4]; 500 g ai/ha) | Pigweed plant response rating ([5]; 125 g ai/ha) | Pigweed plant response rating ([5]; 500 g ai/ha) | Plant response rating, Kochia (kochia (Kochia scoparia) [9]; 16 g ai/ha) | Plant response rating, Kochia (kochia (Kochia scoparia) [9]; 31 g ai/ha) | Kochia plant response rating (kochia (Kochia scoparia) [9]; 62 g ai/ha) | Kochia plant response rating (kochia (Kochia scoparia) [9]; 125 g ai/ha)
30: Ryegrass, Italian plant response rating ([1]; 500 g ai/ha)
